Legend:
[1] = system: PRMT5-dependent di-methylarginine marks in HCT116 isogenic pair; assay: Immunoblot of PRMT5-dependent di-methylarginine marks; type: cell-based; conditions: MTAP−/− and wt HCT116 cells, 5 days
Source text: (§1) FIGS. 2A-F. PRMT5 is selectively essential in MTAP-null cells upon genetic ablation but not pharmacologic targeting. Immunoblot analysis of the indicated proteins in HCT116 MTAP^−/− and HCT116 MTAP wt cells stably expressing PRMT5 shRNA and p-LVX empty vector control (EV). (B) PRMT5 is selectively essential in MTAP-null cells in vitro. Percent growth of HCT116 wt and HCT116 MTAP^−/− cells upon PRMT5 knockdown (+dox), with or without PRMT5 wt or R368A mutant rescue, versus no knockdown (no dox) control in a 10-day soft agar colony growth assay. Colonies were stained with crystal violet and then quantified using Li-Cor (mean±SD, n=3). (C) Immunoblot analysis of the indicated proteins in HCT116 MTAP^−/− and HCT116 MTAP wt cells stably expressing PRMT5 shRNA and shRNA-resistant PRMT5 wt cDNA or PRMT5 R368A catalytically-dead mutant cDNA. (D) Immunoblot analysis of symmetric di-methylarginine marks in HCT116 MTAP^−/− and HCT116 MTAP wt cells stably expressing PRMT5 shRNA and p-LVX empty vector control (EV), or PRMT5 shRNA and shRNA-resistant PRMT5 wt cDNA or PRMT5 R368A catalytically-dead mutant cDNA. (E) Dose response analysis with EPZ015666 titrated from 20 μM top dose in HCT116 MTAP wt vs. HCT116 MTAP^−/− cells. Cells were treated with EPZ015666 for 5 days and their response to the compound is measured as fold growth of treated cells vs. untreated control (mean±SD, n=3). […]

[2] = system: HCT116 MTAP wt vs. HCT116 MTAP−/− cells; assay: EPZ015666 dose response, growth of HCT116 isogenic pair; type: cell-based; conditions: 5 days, titrated from 20 μM top dose
Source text: as §1

PRMT5 = molecular target: T1, PRMT5 (Homo sapiens, UniProt O14744); assay: N-methyltransferase in vitro activity assay; type: biochemical
T1 construct: purchased Eurofins CEREP Panlabs
Method: MTA has been reported to inhibit activity of protein methyltransferases (Enouf et al., 1979). To test this notion directly, we performed an in vitro biochemical screen assessing enzyme activity of 33 different N-methyltransferases following treatment with 10 μM and 100 μM MTA (FIG. 4A). […] Next, we analyzed the MTA Ki for PRMT5, PRMT4, and a diverse subset of methyltransferases (FIG. 4C). In vitro screening of methyltransferase inhibition by MTA, as well as SAM Km measurements, was conducted using a panel of methyltransferase assays at Eurofins CEREP Panlabs.

T1 sequence (O14744 whole entry): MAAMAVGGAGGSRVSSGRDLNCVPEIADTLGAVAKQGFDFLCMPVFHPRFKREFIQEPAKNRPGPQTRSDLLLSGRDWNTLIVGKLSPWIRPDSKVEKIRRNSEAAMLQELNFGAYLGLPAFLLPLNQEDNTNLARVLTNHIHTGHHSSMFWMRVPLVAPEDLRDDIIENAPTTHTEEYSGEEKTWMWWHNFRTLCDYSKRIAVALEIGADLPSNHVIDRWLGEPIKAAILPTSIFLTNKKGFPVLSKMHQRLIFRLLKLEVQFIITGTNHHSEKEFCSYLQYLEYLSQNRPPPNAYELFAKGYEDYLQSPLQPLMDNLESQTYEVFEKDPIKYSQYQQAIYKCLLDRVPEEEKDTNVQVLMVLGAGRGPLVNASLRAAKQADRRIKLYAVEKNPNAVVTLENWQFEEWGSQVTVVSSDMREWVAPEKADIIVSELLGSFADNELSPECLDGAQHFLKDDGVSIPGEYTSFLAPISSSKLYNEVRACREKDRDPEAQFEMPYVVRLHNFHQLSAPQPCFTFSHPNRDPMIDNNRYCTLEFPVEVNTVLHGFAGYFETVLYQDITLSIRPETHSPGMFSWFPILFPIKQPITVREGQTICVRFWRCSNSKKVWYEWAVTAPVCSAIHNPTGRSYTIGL
T1 sequence (Q9BQA1 whole entry partner): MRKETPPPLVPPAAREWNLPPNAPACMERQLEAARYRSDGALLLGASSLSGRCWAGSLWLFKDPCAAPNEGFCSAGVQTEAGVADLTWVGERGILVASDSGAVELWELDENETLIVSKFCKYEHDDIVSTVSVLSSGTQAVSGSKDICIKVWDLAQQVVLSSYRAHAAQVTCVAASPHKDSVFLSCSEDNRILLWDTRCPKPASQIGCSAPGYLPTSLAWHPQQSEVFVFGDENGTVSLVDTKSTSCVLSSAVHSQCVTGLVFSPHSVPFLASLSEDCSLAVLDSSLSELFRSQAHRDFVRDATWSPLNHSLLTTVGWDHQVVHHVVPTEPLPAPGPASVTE

Compound	PRMT5 activity inhibition (PRMT5-dependent di-methylarginine marks in total cell lysates) [1]	MTAP selectivity of growth inhibition [2]	MTAP selectivity of growth inhibition ([2]; listed as EPZ-015666)	IC50 (PRMT5; biochemical assay, read-out: PRMT5 IC50 for MTA) [nM]	Ki (PRMT5; read-out: MTA Ki for PRMT5) [nM]
O=C(NC[C@H](O)CN1CCc2ccccc2C1)c1cc(NC2COC2)ncn1 [EPZ015666]	equal degree of PRMT5 activity inhibition	not selective for the MTAP-deficient genetic background	did not lead to selective growth inhibition in MTAP-null cells		
CSC[C@H]1O[C@@H](n2cnc3c(N)ncnc32)[C@H](O)[C@@H]1O [MTA, methylthioadenosine]				3000	460
